Data on 16 compounds can be found in patent US7935702B2, “Substituted biaryl quinolin-4-ylamine analogues” (Neurogen Corporation, priority 2004, dated 2011).

As usually defined, the Ki is the equilibrium dissociation constant of an inhibitor or competing ligand from its target. The term IC50 denotes the concentration that gives 50% inhibition.

For the first assay, the target named is VR (Homo sapiens, UniProt Q8NER1).
Chain of VR (Q8NER1 whole entry): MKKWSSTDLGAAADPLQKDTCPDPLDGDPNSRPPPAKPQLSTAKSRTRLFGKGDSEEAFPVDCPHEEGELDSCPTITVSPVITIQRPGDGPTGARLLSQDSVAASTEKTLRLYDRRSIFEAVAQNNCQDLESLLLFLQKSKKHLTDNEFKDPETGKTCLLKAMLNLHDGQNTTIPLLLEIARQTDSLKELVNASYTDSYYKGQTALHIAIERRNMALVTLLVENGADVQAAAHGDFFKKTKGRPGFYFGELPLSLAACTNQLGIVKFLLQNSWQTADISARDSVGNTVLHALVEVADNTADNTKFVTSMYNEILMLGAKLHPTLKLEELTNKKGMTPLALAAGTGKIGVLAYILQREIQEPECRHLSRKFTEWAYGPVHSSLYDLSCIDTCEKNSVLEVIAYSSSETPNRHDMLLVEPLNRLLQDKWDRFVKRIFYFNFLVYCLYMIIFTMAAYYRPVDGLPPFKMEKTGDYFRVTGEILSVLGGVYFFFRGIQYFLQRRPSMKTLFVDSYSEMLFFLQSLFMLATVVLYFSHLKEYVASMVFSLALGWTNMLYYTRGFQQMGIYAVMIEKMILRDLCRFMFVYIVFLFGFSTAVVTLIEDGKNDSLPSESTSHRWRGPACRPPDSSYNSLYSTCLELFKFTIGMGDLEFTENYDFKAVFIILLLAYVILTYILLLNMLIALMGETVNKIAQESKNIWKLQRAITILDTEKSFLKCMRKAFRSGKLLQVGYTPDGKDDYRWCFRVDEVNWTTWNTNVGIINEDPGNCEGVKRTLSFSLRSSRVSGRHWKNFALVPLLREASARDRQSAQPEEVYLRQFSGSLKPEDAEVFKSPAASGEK
Assay: not given
As to conditions: background; typical value; cited from earlier work.
Take `Cl.Cl.Cl.Cl.Cl.Cl.N.N.N.N.N.N.N.N.N.N.N.N.N.N.[O-2].[O-2].[Ru+3].[Ru+3].[Ru+4]` [ruthenium red]: the Ki is ≥ 140000 nM.

The target of another assay is T1, human capsaicin receptor (Homo sapiens, UniProt Q8NER1).
T1 construct: expressed in transfected cells
T1 sequence (Q8NER1 whole entry): as above
The assay can be described thus: Calcium mobilization assay, determination of antagonist activity (Example 6). The assay is classed as cell-based. Conditions: Table I; IC50 determined as described in Example 6; read-out: IC50. The protocol:
A cDNA encoding full length human capsaicin receptor (SEQ ID NO:1, 2 or 3 of U.S. Pat. No. 6,482,611) is subcloned in the plasmid pBK-CMV (Stratagene, La Jolla, Calif.) for recombinant expression in mammalian cells.
Human embryonic kidney (HEK293) cells are transfected with the pBK-CMV expression construct encoding the full length human capsaicin receptor using standard methods. The transfected cells are selected for two weeks in media containing G418 (400 μg/ml) to obtain a pool of stably transfected cells. Independent clones are isolated from this pool by limiting dilution to obtain clonal stable cell lines for use in subsequent experiments.
This Example illustrates representative calcium mobilization assays for use in evaluating test compounds for agonist and antagonist activity.
Cells transfected with expression plasmids (as described in Example 4) and thereby expressing human capsaicin receptor are seeded and grown to 70-90% confluency in FALCON black-walled, clear-bottomed 96-well plates (#3904, BECTON-DICKINSON, Franklin Lakes, N.J.). The culture medium is emptied from the 96 well plates and FLUO-3 AM calcium sensitive dye (Molecular Probes, Eugene, Oreg.) is added to each well (dye solution: 1 mg FLUO-3 AM, 440 μL DMSO and 440 μl 20% pluronic acid in DMSO, diluted 1:250 in Krebs-Ringer HEPES (KRH) buffer (25 mM HEPES, 5 mM KCl, 0.96 mM NaH2PO4, 1 mM MgSO4, 2 mM CaCl2, 5 mM glucose, 1 mM probenecid, pH 7.4), 50 μl diluted solution per well). Plates are covered with aluminum foil and incubated at 37° C. for 1-2 hours in an environment containing 5% CO2. After the incubation, the dye is emptied from the plates, and the cells are washed once with KRH buffer, and resuspended in KRH buffer.
To measure the ability of a test compound to agonize or antagonize a calcium mobilization response in cells expressing capsaicin receptors to capsaicin or other vanilloid agonist, the EC50 of the agonist capsaicin is first determined. An additional 20 μl of KRH buffer and 1 μl DMSO is added to each well of cells, prepared as described above. 100 μl capsaicin in KRH buffer is automatically transferred by the FLIPR instrument to each well. Capsaicin-induced calcium mobilization is monitored using either FLUOROSKAN ASCENT (Labsystems; Franklin, Mass.) or FLIPR (fluorometric imaging plate reader system; Molecular Devices, Sunnyvale, Calif.) instruments. Data obtained between 30 and 60 seconds after agonist application are used to generate an 8-point concentration response curve, with final capsaicin concentrations of 1 nM to 3 μM. KALEIDAGRAPH software (Synergy Software, Reading, Pa.) is used to fit the data to the equation: y=a*(1/(1+(b/x)^c)) to determine the 50% excitatory concentration (EC50) for the response. In this equation, y is the maximum fluorescence signal, x is the concentration of the agonist or antagonist (in this case, capsaicin), a is the Emax, b corresponds to the EC50 value and c is the Hill coefficient. Determination of Agonist Activity
Test compounds are dissolved in DMSO, diluted in 20 μl KRH buffer so that the final concentration of test compounds in the assay well is between 1 μM and 5 μM, and added to cells prepared as described above. The 96 well plates containing prepared cells and test compounds are incubated in the dark, at room temperature for 0.5 to 6 hours. It is important that the incubation not continue beyond 6 hours. Just prior to determining the fluorescence response, 100 μl capsaicin in KRH buffer at twice the EC50 concentration determined as described above is automatically added by the FLIPR instrument to each well of the 96 well plate for a final sample volume of 200 μl and a final capsaicin concentration equal to the EC50. The final concentration of test compounds in the assay wells is between 1 μM and 5 μM. […]
In general terms: Calcium flux is commonly read through the fluorescence of an indicator in the cells.
For `CC(C)CNc1cc(C(F)(F)F)c(-c2cnc3c(Nc4ccc(C(F)(F)F)cn4)ccnc3n2)nn1` [compound 99, 3-[6-(isobutylamino)-4-(trifluoromethyl)pyridazin-3-yl]-N-[5-(trifluoromethyl)-pyridin-2-yl]pyrido[2,3-b]pyrazin-8-amine], the IC50 was < 1000 nM. The same measure, in the same setting: to `FC(F)(F)c1ccc(Nc2ccnc3nc(-c4nnc(NC5CC5)cc4C(F)(F)F)cnc23)nc1` [compound 104, 3-[6-(cyclopropylamino)-4-(trifluoromethyl)pyridazin-3-yl]-N-[5-(trifluoromethyl)-pyridin-2-yl]pyrido[2,3-b]pyrazin-8-amine] belongs < 1000 nM. On the same count and under the same terms, the same measure for `CCC(CC)Nc1cc(C(F)(F)F)c(-c2cnc3c(Nc4ccc(C(F)(F)F)cn4)ccnc3n2)nn1` [compound 115, 3-{6-[(1-ethylpropyl)amino]-4-(trifluoromethyl)pyridazin-3-yl}-N-[5-(trifluoromethyl)-pyridin-2-yl]pyrido[2,3-b]pyrazin-8-amine]: < 1000 nM; for `C[C@@H](O)CNc1cc(C(F)(F)F)c(-c2cnc3c(Nc4ccc(C(F)(F)F)cn4)ccnc3n2)nn1` [compound 125, (R)-1-{[5-(trifluoromethyl)-6-(8-{[5-(trifluoromethyl)-pyridin-2-yl]amino}-pyrido[2,3-b]pyrazin-3-yl)pyridazin-3-yl]amino}propan-2-ol]: < 1000 nM; for `C[C@H](O)CNc1cc(C(F)(F)F)c(-c2cnc3c(Nc4ccc(C(F)(F)F)cn4)ccnc3n2)nn1` [compound 126, (S)-1-{[5-(trifluoromethyl)-6-(8-{[5-(trifluoromethyl)-pyridin-2-yl]amino}-pyrido[2,3-b]pyrazin-3-yl)pyridazin-3-yl]amino}propan-2-ol]: < 1000 nM.

For `C=CCN(C)c1cc(C(F)(F)F)c(-c2cnc3c(Nc4ccc(C(F)(F)F)cn4)ccnc3n2)nn1` [compound 141, 3-{6-[allyl(methyl)amino]-4-(trifluoromethyl)pyridazin-3-yl}-N-[5-(trifluoromethyl)-pyridin-2-yl]pyrido[2,3-b]pyrazin-8-amine], the IC50 is < 1000 nM. The same measure, in the same setting: the same measure for `CC(C)CN(C)c1cc(C(F)(F)F)c(-c2cnc3c(Nc4ccc(C(F)(F)F)cn4)ccnc3n2)nn1` [compound 145, 3-{6-[isobutyl(methyl)amino]-4-(trifluoromethyl)pyridazin-3-yl}-N-[5-(trifluoromethyl)-pyridin-2-yl]pyrido[2,3-b]pyrazin-8-amine]: < 1000 nM; for `C=CCN(CC=C)c1cc(C(F)(F)F)c(-c2cnc3c(Nc4ccc(C(F)(F)F)cn4)ccnc3n2)nn1` [compound 150, 3-[6-(diallylamino)-4-(trifluoromethyl)pyridazin-3-yl]-N-[5-(trifluoromethyl)-pyridin-2-yl]pyrido[2,3-b]pyrazin-8-amine]: < 1000 nM; for `CCCCN(CC)c1cc(C(F)(F)F)c(-c2cnc3c(Nc4ccc(C(F)(F)F)cn4)ccnc3n2)nn1` [compound 152, 3-{6-[butyl(ethyl)amino]-4-(trifluoromethyl)pyridazin-3-yl}-N-[5-(trifluoromethyl)-pyridin-2-yl]pyrido[2,3-b]pyrazin-8-amine]: < 1000 nM. In the case of `CCCN(CC1CC1)c1cc(C(F)(F)F)c(-c2cnc3c(Nc4ccc(C(F)(F)F)cn4)ccnc3n2)nn1` [compound 153, 3-{6-[(cyclopropylmethyl)-(propyl)amino]-4-(trifluoro-methyl)pyridazin-3-yl}-N-[5-(trifluoromethyl)pyridin-2-yl]pyrido[2,3-b]pyrazin-8-amine], the IC50 is < 1000 nM. Same read-out and setting: to `CN(C)CC1CCCCN1c1cc(C(F)(F)F)c(-c2cnc3c(Nc4ccc(C(F)(F)F)cn4)ccnc3n2)nn1` (stereo not shown) [compound 164, 3-[6-{2-[(dimethylamino)-methyl]piperidin-1-yl}-4-(trifluoromethyl)pyridazin-3-yl)-N-[5-(trifluoromethyl)-pyridin-2-yl]pyrido[2,3-b]pyrazin-8-amine] belongs < 1000 nM. The same measure, in the same setting: the same measure for `O[C@@H]1CCN(c2cc(C(F)(F)F)c(-c3cnc4c(Nc5ccc(C(F)(F)F)cn5)ccnc4n3)nn2)C1` [compound 170, (R)-1-[5-(trifluoromethyl)-6-(8-{[5-(trifluoromethyl)-pyridin-2-yl]amino}-pyrido[2,3-b]pyrazin-3-yl)-pyridazin-3-yl]pyrrolidin-3-ol]: < 1000 nM; for `CCN(CCCO)c1cc(C(F)(F)F)c(-c2cnc3c(Nc4ccc(C(F)(F)F)cn4)ccnc3n2)nn1` [compound 177, 3-{ethyl[5-(trifluoromethyl)-6-(8-{[5-(trifluoromethyl)-pyridin-2-yl]amino}-pyrido[2,3-b]pyrazin-3-yl)-pyridazin-3-yl]amino}propan-1-ol]: < 1000 nM. The same measure, in the same setting: the same measure for `CC(C)N(CCCO)c1cc(C(F)(F)F)c(-c2cnc3c(Nc4ccc(C(F)(F)F)cn4)ccnc3n2)nn1` [compound 178, 3-{isopropyl[5-(trifluoro-methyl)-6-(8-{[5-(trifluoro-methyl)pyridin-2-yl]amino}-pyrido[2,3-b]pyrazin-3-yl)pyridazin-3-yl]amino}propan-1-ol]: < 1000 nM; for `OC1CN(c2cc(C(F)(F)F)c(-c3cnc4c(Nc5ccc(C(F)(F)F)cn5)ccnc4n3)nn2)C1` [compound 179, 1-[5-(trifluoromethyl)-6-(8-{[5-(trifluoromethyl)pyridin-2-yl]amino}pyrido[2,3-b]pyrazin-3-yl)pyridazin-3-yl]azetidin-3-ol]: < 1000 nM.
